From patent publication US20060194823A1, “Sulfonamido-macrocycles as Tie2 inhibitors and the salts thereof, a pharmaceutical composition comprising these compounds, the method of preparing and the use thereof” (priority 2004, published 2006)

What follows are molecules tested against T1, Tie-2-Kinase (Homo sapiens, UniProt Q02763) (assay: Tie-2-Kinase HTRF-Assay). Details: either in the Tie2 kinase assay or in the Tie2 autophosphorylation ELISA test; read-out: IC50, inhibit Tie2.
T1 construct: made in house
T1 sequence (Q02763 23-1124): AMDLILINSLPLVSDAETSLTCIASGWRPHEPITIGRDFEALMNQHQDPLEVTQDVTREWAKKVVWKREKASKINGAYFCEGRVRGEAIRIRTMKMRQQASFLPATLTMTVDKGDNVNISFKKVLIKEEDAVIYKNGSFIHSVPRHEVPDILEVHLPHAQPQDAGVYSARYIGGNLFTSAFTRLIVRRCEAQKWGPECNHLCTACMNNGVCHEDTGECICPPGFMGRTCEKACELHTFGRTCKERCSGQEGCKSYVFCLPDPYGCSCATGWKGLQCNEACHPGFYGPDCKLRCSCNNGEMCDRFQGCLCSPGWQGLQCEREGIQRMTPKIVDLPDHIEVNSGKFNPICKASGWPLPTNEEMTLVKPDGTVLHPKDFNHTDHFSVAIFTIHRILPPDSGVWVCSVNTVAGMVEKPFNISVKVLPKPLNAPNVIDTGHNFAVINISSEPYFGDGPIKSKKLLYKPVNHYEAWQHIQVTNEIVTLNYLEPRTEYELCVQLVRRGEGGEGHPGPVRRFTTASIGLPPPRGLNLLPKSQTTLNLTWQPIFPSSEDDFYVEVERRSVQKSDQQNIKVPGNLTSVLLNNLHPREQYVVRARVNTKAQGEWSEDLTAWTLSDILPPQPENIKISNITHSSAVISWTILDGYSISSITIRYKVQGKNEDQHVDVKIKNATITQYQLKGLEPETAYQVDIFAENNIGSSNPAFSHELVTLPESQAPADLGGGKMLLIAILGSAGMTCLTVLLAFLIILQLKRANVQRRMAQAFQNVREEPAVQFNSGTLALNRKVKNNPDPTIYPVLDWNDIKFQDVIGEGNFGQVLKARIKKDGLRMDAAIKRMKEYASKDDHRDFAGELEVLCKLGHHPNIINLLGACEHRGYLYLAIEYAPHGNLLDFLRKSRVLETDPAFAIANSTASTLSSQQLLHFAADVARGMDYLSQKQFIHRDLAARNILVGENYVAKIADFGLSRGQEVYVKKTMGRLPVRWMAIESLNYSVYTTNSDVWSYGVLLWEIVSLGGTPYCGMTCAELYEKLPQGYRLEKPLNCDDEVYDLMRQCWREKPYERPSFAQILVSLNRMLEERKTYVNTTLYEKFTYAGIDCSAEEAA
Format: biochemical
From the text: Tie-2 phosphorylates tyrosine residues of the artificial substrate polyGAT (biotinylated polyGluAlaTyr). Detection of phosphorylated product is achieved specifically by a trimeric detection complex consisting of the phosphorylated substrate, streptavidin-XLent (SA-XLent) which binds to biotin, and Europium Cryptate-labeled anti-phosphotyrosine antibody PT66 which binds to phosphorylated tyrosine. Excitation of Europium fluorescence with 337 nm light results in emission of long-lived light with 620 nm. In case a trimeric detection complex has formed, part of the energy will be transferred to the SA-XLent fluorophore that itself then emits long-lived light of 665 nm (FRET: fluorescence resonance energy transfer). […] Measurement is performed in a Packard Discovery or BMG Rubystar instrument. A-counts (emission at 665 nm) will be divided by B-counts (emission at 620 nm) and multiplicated with a factor of 10000. The resulting numbers are called the “well ratio” of the sample.
• Enzyme: Tie-2-Kinase, in house, aliquots (12×10 mL) stored at −80° C. • Substrate: PolyGAT labeled with Biotin (1000 μg/mL); ClS Bio; # 61GATBLB; • aliquots stored at −20° C. • ATP: Amersham Pharmacia Biotech Inc. # 27-2056-01; 100 mM; stored at −20° C. • Antibody: PT66-Eu Cryptate; CIS Bio; # 61T66KLB; 30 μg/mL; aliquots stored at −20° C. • SA-XLent; CIS Bio; # 611SAXLB; 1000 μg/mL; aliquots stored at −80° C. • Microplates: 384 Well black, SV, Greiner, # 784076 Solutions: Assay Buffer: • 50 mM HEPES (pH 7.0), 25 mM MgCl2, 5 mM MnCl2, 1 mM DTT, 0.5 mM Na3VO4, 0.01% (v/v) NP40, 1× Complete EDTA free Enzyme Working Solution: • Tie-2 stock solution is diluted 1:250 in assay buffer Substrate Working Solution: • PolyGAT (1000 μg/mL; 36.23 μM) is diluted 1:90.6 to 400 nM or 77.3 ng/well, ATP (100 mM) is diluted 1:5000 to 20.0 μM. Both dilutions in assay buffer. Final assay concentrations: poly-GAT: 200 nM or 5.25 μg/mL, ATP: 10 μM (1×Km each). • Detection solution: 50 mM HEPES (pH 7.0), BSA 0.2%, 0.6 M KF, 200 mM EDTA, PT66-Europium Cryptate 2.5 ng/well, SA-XLent Cis Bio 90 ng/well. Assay Steps All Steps at 20° C. • 1. 0.75 μL of compound solution in 30% (v/v) DMSO • 2. add 7 μL of substrate working solution • 3. add 7 μL of enzyme working solution • 4. incubate 75 min (reaction volume: 14.75 μL) • 5. add 8 μL of detection solution • 6. incubate 180 min or over night at 4° C. (total volume: 22.75 μL) • 7. measure HTRF in Packard Discovery or BMG Rubystar instrument (delay 50 μs, integrated time 400 μs) Final Concentrations (in 14.75 μL Reaction Volume): • Enzyme: unknown • polyGAT (1×Km): 200 nM (77.3 ng) • ATP (1×Km): 10 μM • DMSO: 1.5% (v/v) • Buffer conditions: 50 mM HEPES (pH 7.0), 25 mM MgCl2, 5 mM MnCl2, 1 mM DTT, 0.5 mM NaVO4, 0.01% (v/v) NP40, 1× Complete Controls: • C0: uninhibited reaction (DMSO only) • Ci: inhibited reaction with 20 μM Staurosporine Biological Experiment 3: Proliferation Test

**Q.** How did the IC50 turn out when `O=S1(=O)NCCCNc2nc(ncc2-c2ccc3c(c2)OCO3)Nc2cccc1c2` [Example 1, 1^5-(1,3-benzodioxol-5-yl)-4-thia-2,5,9-triaza-1(2,4) pyrimidina-3(1,3)-benzenacyclonona-phane 4,4-dioxide] was run?
**A.** The IC50 was at most 1000 nM.

**Q.** How did the IC50 turn out when `O=C(COc1ccc(-c2cnc3nc2NCCCNS(=O)(=O)c2cccc(c2)N3)cc1)c1ccc(F)cc1` [Example 2, 2-[4-[4,4-dioxo-4λ^6-thia-2,5,9-triaza-1(2,4)-pyrimidina-3(1,3)-benzenacyclo-nonaphan-1^5-yl]phenoxy]-1-(4-fluorophenyl)-ethanone] was run?
**A.** The IC50 was at most 1000 nM.

**Q.** With `O=C(COc1ccc(-c2cnc3nc2NCCCNS(=O)(=O)c2cccc(c2)N3)cc1)c1ccccc1` [Example 3, 2-[4-[4,4-dioxo-4λ^6-thia-2,5,9-triaza-1(2,4)-pyrimidina-3(1,3)-benzenacyclo-nonaphan-1^5-yl]phenoxy]-1-phenylethanone] as the molecule, how does the IC50 read?
**A.** Its IC50 is at most 1000 nM.

**Q.** Which IC50 does the source give for `O=C(Nc1ccccc1)Nc1ccc(-c2cnc3nc2NCCCNS(=O)(=O)c2cccc(c2)N3)cc1` [Example 8, N-[4-[4,4-dioxo-4λ^6-thia-2,5,9-triaza-1(2,4)-pyrimidina-3(1,3)-benzena-cyclononaphan-1^5-yl]phenyl]-N′-phenylurea] here?
**A.** Its IC50 is at most 1000 nM.

**Q.** `O=C(Nc1ccc(-c2cnc3nc2NCCCNS(=O)(=O)c2cccc(c2)N3)cc1)Nc1cccc(C(F)(F)F)c1` [Example 9, N-[4-[4,4-dioxo-4λ^6-thia-2,5,9-triaza-1(2,4)-pyrimidina-3(1,3)-benzena-cyclononaphan-1^5-yl]phenyl]-N′-[3-(trifluoromethyl)-phenyl]urea] was tested. Which IC50 did it give?
**A.** The IC50 was at most 1000 nM.

**Q.** For `O=C(Nc1ccc(-c2cnc3nc2NCCCNS(=O)(=O)c2cccc(c2)N3)cc1)Nc1cc(C(F)(F)F)ccc1F` [Example 10, N-[4-[4,4-dioxo-4λ^6-thia-2,5,6-triaza-1(2,4)-pyrimidina-3(1,3)-benzena-cyclononaphan-1^5-yl]phenyl]-N′-[2-fluoro-5-(trifluoromethyl)-phenyl]urea], which IC50 is on record?
**A.** Its IC50 is at most 1000 nM.

**Q.** `COc1ccc(S(=O)(=O)Nc2ccc(-c3cnc4nc3NCCCNS(=O)(=O)c3cccc(c3)N4)cc2)cc1` [Example 23, N-[4-[4,4-dioxo-4λ^6-thia-2,5,9-triaza-1(2,4)-pyrimidina-3(1,3)-benzena-cyclononaphan-1^5-yl]phenyl]-4-methoxybenzene-sulfonamide] was tested. Which IC50 did it give?
**A.** The IC50 was at most 1000 nM.
